Measured values: patent US20240209028A1, “CNP COMPOUNDS” (priority 2022, published 2024)
Starred links: 1 amine or outer side, 2 acyl side, 3 side chain; linkers in the order of their positions; H or OH if unused. Positions of bridges follow the written chain, without caps; N, C: chain ends. Residues, ends and D or L forms follow the SMILES beside them. *: point of attachment. C18 diacid = O=C(O)CCCCCCCCCCCCCCCCC(=O)*; γGlu = O=C(O)[C@H](CCC(=O)[*:2])N[*:1]

Test: Telemetry measurement of heart rate and blood pressure in awake rats
Type: in vivo, Sprague Dawley rat
Conditions: for Heart rate: 30 min, P (vs vehicle) / Heart rate: 12 h, P (vs vehicle) / Mean arterial pressure: 30 min, P (vs vehicle) / Mean arterial pressure: 12 h, P (vs vehicle): paired t test; for Heart rate: 12 h, Mean (bpm) / Mean arterial pressure: 12 h, Mean (mmHg) / Heart rate: 30 min, Mean (bpm) / Mean arterial pressure: 30 min, Mean (mmHg): awake rats; for Heart rate: 12 h, Mean (bpm) / Mean arterial pressure: 12 h, Mean (mmHg): average of first 12 h; for Heart rate: 30 min, Mean (bpm) / Mean arterial pressure: 30 min, Mean (mmHg): first 30 min; for increase in HR: P<0.05
Protocol: The purpose of the study was to investigate the effect of acute dosing with the CNP compound 9482 (Chem. 137) on mean blood pressure (MAP) and heart rate (HR) in awake rats.
Procedure: The transducers are implanted in Sprague Dawley rats (Charles River) and the rats are allowed a 2-3-week period for recovery. Before surgery, the devices are registered in the software by placing them on a receiver plate and powered on. Sterile saline is added to the transducer catheter before surgery start, and the transmitter is then powered on. The transmitters are placed in the abdomen with the sensor in aorta abdominalis. Isoflurane is used as anaesthetic, and during and after surgery, the rats receive Temgesic (0.05 mg/kg s.c.), Norodyl (5 mg/kg s.c.), and Baytril (10 mg/kg s.c.) as pain relief and to prevent bacterial infection.
Study design: Rats are housed 2/cage (1 with device and 1 as social partner). All animals will have free access to water and food (altromin) throughout the entire study. The rats will be housed in light cycles with light from 6 AM to 6 PM and dark from 6 PM to 6 AM. Eight rats are divided into 2 groups according to a crossover study design.
Telemetry: Each rat is equipped with a transducer (HD-S10 from DSI) capable of measuring blood pressure, heart rate, and activity using Ponemah software with a 100 Hz frequency. During measurements, there should be no disturbances in the room that the rats are housed in to minimize variability in the data. A 4-hour baseline recording will be taken prior to start of the study to capture mean arterial pressure (MAP) and heart rate (HR) patterns in untreated, undisturbed rats. The recording period after drug administration was 24 hours.
Dosing scheme: Rats are dosed in a crossover study design with 4 rats in each group. Each rat is given a washout period of 1 week prior to the next dosing event. Dosing will be intravenous (IV) in the tail vein. Dosing of 9482 was tested in 30, 100, and 300 nmol/kg i.v. in separate experiments. The vehicle consists of 8 mM phosphate, 250 mM glycerol, pH 7.4.
Data analysis and statistics was conducted in Ponemah software and Graphpad prism. For statistics, a paired t test was applied with a confidence level of 95% and P<0.05 denoting statistical significance.

[1] = first 30 min after dosing, 30, 100, or 300 nmol/kg i.v.

CC[C@H](C)[C@@H]1NC(=O)[C@H](CCCNC(=N)N)NC(=O)[C@H](CC(=O)O)NC(=O)[C@H](CC(C)C)NC(=O)[C@@H]2CCCN2C(=O)[C@H](CC(C)C)NC(=O)CNC(=O)[C@H](Cc2ccccc2)NC(=O)[C@@H](NC(=O)CNC(=O)[C@H](CO)NC(=O)[C@H](CO)NC(=O)[C@H](CC(C)C)NC(=O)CNC(=O)[C@H](CCCCN)NC(=O)[C@H](CCCCN)NC(=O)[C@H](CCC(N)=O)NC(=O)[C@H](C)NC(=O)CNC(=O)[C@H](CCCCN)NC(=O)[C@H](Cc2ccc(O)cc2)NC(=O)[C@H](CCCCN)NC(=O)[C@H](CCCNC(=N)N)NC(=O)[C@H](C)NC(=O)[C@H](CCC(N)=O)NC(=O)[C@@H]2CCCN2C(=O)[C@H](Cc2c[nH]cn2)NC(=O)[C@H](CCC(=O)O)NC(=O)[C@H](CCC(N)=O)NC(=O)CC[C@H](NC(=O)CC[C@H](NC(=O)CC[C@H](NC(=O)CC[C@H](NC(=O)CC[C@H](NC(=O)CCCCCCCCCCCCCCCCC(=O)O)C(=O)O)C(=O)O)C(=O)O)C(=O)O)C(=O)O)CSSC[C@@H](C(=O)O)NC(=O)CNC(=O)[C@H](CC(C)C)NC(=O)CNC(=O)[C@H](CO)NC(=O)[C@H](CC(C)C)NC(=O)[C@H](CO)NC(=O)CNC1=O [compound 9482] ({C18 diacid-γGlu-γGlu-γGlu-γGlu-γGlu}-QEHPQARKYKGAQKKGLSSGCFGLPLDRIGSLSGLGC-OH; disulfide 21-37)
Heart rate: 30 min, P (vs vehicle) (30 nmol/kg i.v.): ns
Heart rate: 12 h, P (vs vehicle) (30 nmol/kg i.v.): ns
Mean arterial pressure: 30 min, P (vs vehicle) (30 nmol/kg i.v.): ns
Mean arterial pressure: 12 h, P (vs vehicle) (30 nmol/kg i.v.): ns
Heart rate: 30 min, P (vs vehicle) (100 nmol/kg i.v.): ns
Heart rate: 12 h, P (vs vehicle) (100 nmol/kg i.v.): 0.04
Mean arterial pressure: 30 min, P (vs vehicle) (100 nmol/kg i.v.): ns
Mean arterial pressure: 12 h, P (vs vehicle) (100 nmol/kg i.v.): ns
Heart rate: 30 min, P (vs vehicle) (300 nmol/kg i.v.): ns
Heart rate: 12 h, P (vs vehicle) (300 nmol/kg i.v.): 0.03
Mean arterial pressure: 30 min, P (vs vehicle) (300 nmol/kg i.v.): ns
Mean arterial pressure: 12 h, P (vs vehicle) (300 nmol/kg i.v.): ns
MAP compared to vehicle (average of the first 12 h, three tested doses i.v.): no differences
Heart rate: 12 h, Mean (bpm) (30 nmol/kg i.v.): 332 bpm
Mean arterial pressure: 12 h, Mean (mmHg) (30 nmol/kg i.v.): 106 mmHg
Heart rate: 30 min, Mean (bpm) (30 nmol/kg i.v.): 356 bpm
Mean arterial pressure: 30 min, Mean (mmHg) (30 nmol/kg i.v.): 116 mmHg
Heart rate: 12 h, Mean (bpm) (100 nmol/kg i.v.): 364 bpm
Mean arterial pressure: 12 h, Mean (mmHg) (100 nmol/kg i.v.): 104 mmHg
Heart rate: 30 min, Mean (bpm) (100 nmol/kg i.v.): 388 bpm
Mean arterial pressure: 30 min, Mean (mmHg) (100 nmol/kg i.v.): 114 mmHg
Heart rate: 12 h, Mean (bpm) (300 nmol/kg i.v.): 355 bpm
Mean arterial pressure: 12 h, Mean (mmHg) (300 nmol/kg i.v.): 102 mmHg
Heart rate: 30 min, Mean (bpm) (300 nmol/kg i.v.): 370 bpm
Mean arterial pressure: 30 min, Mean (mmHg) (300 nmol/kg i.v.): 111 mmHg
HR compared to vehicle [1]: no difference
MAP compared to vehicle [1]: no difference
change in HR (first 12 h, 30 nmol/kg i.v.): No change
increase in HR (first 12 h, 100 nmol/kg i.v.): 8.8±10.1%
increase in HR (first 12 h, 300 nmol/kg i.v.): 6.4±6.6%
